Assay results taken from ChEMBL document CHEMBL5500364, “Design, synthesis, and biological evaluation of some 2-(3-oxo-5,6-diphenyl-1,2,4-triazin-2(3H)-yl)-N-phenylacetamide hybrids as MTDLs for Alzheimer's disease therapy” (Eur J Med Chem, 2024).
Active and inactive are the calls of the source. The rule behind the calls is not given here.

Experiments:
[1] = target: Amyloid-beta precursor protein (Homo sapiens) (UniProt P05067); assay: Inhibition of amyloid beta (1 to 42) (unknown origin) aggregation assessed as reduction in fluorescence intensity at 50 uM incubated for 48 hrs by confocal microscopic analysis
Rattus norvegicus [2] = assay: (§1) Reversal of amyloid beta (1 to 42 residues) induced cognitive impairment in Wistar rat assessed as reduction in escape latency time at 10 mg/kg, po pretreated with amyloid beta for 7 days followed by compound administration for 9 days and measured after 5 days by Morris water maze test; format: functional, organism-based; conditions: time 14.0 day
[3] = Acute toxicity in Wistar rat assessed as effect on PCT shape at 500 to 1000 mg/kg, po administered for 14 days by histopathological analysis; format: organism-based; conditions: in vivo, 336 h, dose 500-1000 mg/kg, time 14 day
[4] = target: Amyloid-beta precursor protein (Homo sapiens) (UniProt P05067); assay: Inhibition of amyloid beta (1 to 42) (unknown origin) self aggregation ar 5 to 20 uM incubated for 48 hrs by Thioflavin T fluorescence assay relative to control; conditions: dose 5-20 µM
[5] = Tmax in male Wistar rat at 10 mg/kg, po measured after 72 hrs by HPLC analysis; format: ADME, organism-based; conditions: in vivo
[6] = Neurotoxicity in human SH-SY5Y cells assessed as reduction in cell population at 80 uM incubated for 24 hrs by MTT assay
Rattus norvegicus [7] = assay: as §1, with “decrease” for “reduction”, “amyloid level in CA1 region of hippocampus” for “escape latency time”, “immuno histochemical analysis” for “Morris water maze test”; format: functional, organism-based; conditions: time 14.0 day

Sequence of Amyloid-beta precursor protein (Homo sapiens) (P05067 whole entry, the tested form may be a part): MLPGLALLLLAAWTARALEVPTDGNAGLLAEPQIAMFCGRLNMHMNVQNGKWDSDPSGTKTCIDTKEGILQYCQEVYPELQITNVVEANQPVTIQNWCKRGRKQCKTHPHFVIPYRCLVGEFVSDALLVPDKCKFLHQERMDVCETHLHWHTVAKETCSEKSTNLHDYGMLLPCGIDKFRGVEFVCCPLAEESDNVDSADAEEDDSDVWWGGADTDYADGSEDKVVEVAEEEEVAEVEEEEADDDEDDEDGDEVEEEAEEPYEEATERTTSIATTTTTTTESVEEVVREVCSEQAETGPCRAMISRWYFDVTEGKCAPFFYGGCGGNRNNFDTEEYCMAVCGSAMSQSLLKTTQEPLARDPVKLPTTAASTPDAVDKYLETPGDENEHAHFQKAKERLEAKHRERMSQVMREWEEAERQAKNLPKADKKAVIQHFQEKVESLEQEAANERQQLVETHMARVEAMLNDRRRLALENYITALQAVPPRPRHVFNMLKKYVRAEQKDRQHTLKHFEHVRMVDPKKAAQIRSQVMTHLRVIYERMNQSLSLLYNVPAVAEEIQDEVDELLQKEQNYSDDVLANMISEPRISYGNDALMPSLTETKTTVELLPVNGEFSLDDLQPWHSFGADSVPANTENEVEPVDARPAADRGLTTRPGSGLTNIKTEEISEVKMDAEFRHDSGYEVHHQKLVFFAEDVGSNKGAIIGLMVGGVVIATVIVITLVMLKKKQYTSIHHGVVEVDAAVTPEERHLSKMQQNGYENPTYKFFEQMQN

With `COc1cc(NC(=O)Cn2nc(-c3ccccc3)c(-c3ccccc3)nc2=O)cc(OC)c1` the inhibition [1] was “Active”, the Activity (Rattus norvegicus [2]) was “Active” and the Activity [3] was “Non-Toxic”. The inhibition [4] was 23.6%, the Tmax [5] was 9 h and the Activity [6] was “Non-Toxic”. For the same compound, the Activity (Rattus norvegicus [7]) was “Active”.
